Reference: patent US12214079B2, “Micronized lipids” (MCAL Therapeutics Inc., priority 2021, dated 2025)
In brackets after ≈: the same amount, converted by molar mass. Entries after “also recorded” stand apart in the source; their conditions may differ. Read-outs that look alike come from different tables or passages of the source.

Key:
[1] = General and physiochemical properties of MCAL-201 (solubility, hygroscopicity); assay type: physicochemical
Description: The general and physiochemical properties of MCAL-201 are: • 1,2-EPRG has a molecular weight of 611.05 g/mol • Empirical formula: C39H78O4 • Appearance: White powder • Particle size: 1-10 μm (post micronization) • Hygroscopicity: Low • Chirality: Racemic • Enantiomeric excess: 0 • Melting point: 57° C. • Solubility: Insoluble in water. Soluble in chloroform (40 mg/mL) and castor • oil (25 mg/mL)
However, preparation of a water soluble cyclodextrin inclusion complex of MCAL-201 was used in nonclinical efficacy studies. In addition, solutions of MCAL-201 in castor oil which can be emulsified to micron sized liquid particles in aqueous buffers can be used to deliver MCAL-201 directly to the tear film lipid layer.

[2] = Isomeric stability (1,2-EPRG to 1,3-EPRG acyl migration), NMR analysis of isomeric content; assay type: physicochemical
Description: FIG. 4 provides NMR (nuclear magnetic resonance) spectral analysis of 1,3-EPRG and 1,2-EPRG isomeric content (1.15 mol % 1,3-EPRG) of MCAL-201 after jet mill micronization.
FIG. 5 provides NMR (nuclear magnetic resonance) spectral analysis of 1,3-EPRG and 1,2-EPRG isomeric content (0.0991 mol % 1,3-EPRG) of MCAL-201 after solid micronized MCAL-201suspension is stored at room temperature for 6 weeks.
This led to development of the delivery of solid MCAL-201 as a suspension of crystalline or amorphous micronized solid particle suspended in a water-based formulation isotonic with tear. Although MCAL-201 crystalline drug substance floated on phosphate buffered saline (PBS) it could be suspended following micronization to 1-10 micron particles which could be stably suspended in PBS with the aid of polysorbate 80 as a wetting agent and xanthan gum to adjust density and viscosity of the drug product.

naive dogs = experiment: Non-GLP topical ocular dose range-finding toxicity and tolerability study (SPOTS scoring); assay type: in vivo; settings: up to 10 mg/mL OU BID for 48 hours
Description: A non-GLP topical ocular administration dose range-finding pharmacology and toxicity study of MCAL-201 was conducted in naive dogs. The primary study objective was to assess the tolerability of topical ocular administration of MCAL-201 in dogs with a secondary objective to obtain data supporting pharmacological activity in healthy dogs.
The effects of vehicle and 0.1, 0.5, 1, 3 and 10 mg/mL MCAL-201 delivered as a 35 μL drop bilaterally QD (0.0035, 0.0175, 0.035, 0.105 and 0.35 mg/eye/day) were evaluated in Part I. The dosing regimen is summarized in 3.
(§1) Scoring of the ocular surface and anterior segment of the eye was performed using the SPOTS system by a board-certified veterinary ophthalmologist. SPOTS was performed for each concentration evaluated. To measure TBUT, fluorescein was instilled in the eye and the eye was manually closed and then gently opened to simulate a blink. The time interval between the opening of the eye and the first sign of disruption of the uniform tear film, as indicated by breaks in the fluorescein was recorded in seconds. The procedure was repeated three times on both eyes, first right than left eye. After BID dosing with 10 mg/mL MCAL-201, SPOTS was also performed at 48 hours after the last dose.

healthy dogs = experiment: Tear film break-up time (TBUT) by fluorescein after topical ocular administration; assay type: in vivo, dog; settings: 5 healthy adult dogs
Description: as §1

CCCCCCCCCCCCCCCCCCCCOCC(CO)OC(=O)CCCCCCCCCCCCCCC (racemic) [MCAL-201, 1-O-eicosanyl-2-palmitoyl-rac-glycerol]
Hygroscopicity [1]: Low
solubility ([1]; castor oil, oil or lipid, read-out: Solubility in castor oil): 25 mg/mL (≈ 40.9 mM)
solubility ([1]; chloroform, organic solvent or mixture, read-out: Solubility in chloroform): 40 mg/mL (≈ 65.5 mM)
Solubility in water ([1]; water): Insoluble; also recorded: extreme insolubility
1,3-EPRG isomeric content (NMR) ([2]; after jet mill micronization): 1.15 mol %
Chemical stability (acyl migration of palmitoyl from 2 to 3 position) ([2]; liquid solution phase): lacked long-term chemical stability
Time for which isomeric stability was demonstrated ([2]; micronized, in the suspension formulation at room temperature): 6 weeks
Stability to the micronization process ([2]; particles recovered from formulated drug by centrifugation and washing): chemical and isomeric stability
1,3-EPRG isomeric content (NMR) ([2]; solid micronized suspension stored at room temperature for 6 weeks): 0.0991 mol %
Isomeric stability ([2]; solid phase, compared with solution): far greater than in solution
Ocular or systemic adverse events (naive dogs; any time or concentration evaluated): no ocular or systemic adverse events
Tolerability (naive dogs; topical ocular 35 μL drop): well tolerated
Effect on TBUT (healthy dogs): extended TBUT
